In general, IC50 refers to the concentration that inhibits the measured activity by half.

The source of these data is ChEMBL document CHEMBL4418276, “Boldine derivatives for promoting bone growth” (2014).

This assay concerns the target T1, Sclerostin (Homo sapiens, UniProt Q9BQB4).
T1 sequence (Q9BQB4 whole entry): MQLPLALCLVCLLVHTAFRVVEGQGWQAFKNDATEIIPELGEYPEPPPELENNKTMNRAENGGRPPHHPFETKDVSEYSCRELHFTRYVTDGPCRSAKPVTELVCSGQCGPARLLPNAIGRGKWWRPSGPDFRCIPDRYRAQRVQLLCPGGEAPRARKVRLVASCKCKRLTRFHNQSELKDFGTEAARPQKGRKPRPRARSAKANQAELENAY
As to the kind of experiment: Inhibition of sclerostin in human embryonic cells assessed as restoration of Wnt signaling by luciferase reporter gene assay. Type of assay: cell-based. (In general: A reporter such as luciferase makes a cellular process visible.)

For `COc1cc2c(cc1OC)-c1c(OC)c(OC)c(C=O)c3c1[C@H](C2)N(C)CC3`, the IC50 is 1.5 µM.
